Assay results from ChEMBL document CHEMBL1201862, “PubChem BioAssay data set” (2004).
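Grown in 96-well plates, cells were treated for 48 hours with each compound at five concentrations. Insufficient inhibition: endpoint recorded as highest concentration tested. Abbreviation: GI50, concentration required for 50% inhibition of growth.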 Activity calls are given as the source filed them. Cut-off read from the data, not from the text of the source: active = GI50 up to about 1.1 µM and inactive = higher.

Assays:
Experiment in all cases: NCI tumour cell line growth inhibition, 48 h
[1] = tested on: U-251
[2] = tested on: ACHN
[3] = tested on: TK-10
[4] = tested on: OVCAR-3
[5] = tested on: HT-29
[6] = tested on: SF-268
[7] = tested on: COLO 205
[8] = tested on: HOP-62
[9] = tested on: UACC-62
[10] = tested on: MDA-MB-435
[11] = tested on: A549
[12] = tested on: HCT-116
[13] = tested on: Hs-578T
[14] = tested on: HOP-92
[15] = tested on: SNB-75
[16] = tested on: M14
[17] = tested on: HCT-15
[18] = tested on: Malme-3M
[19] = tested on: NCI-H226
[20] = tested on: HCC 2998

Compound | GI50 [1] | GI50 [2] | GI50 [3] | GI50 [4] | GI50 [5] | GI50 [6] | GI50 [7] | GI50 [8] | GI50 [9] | GI50 [10] | GI50 [11] | GI50 [12] | GI50 [13] | GI50 [14] | GI50 [15] | GI50 [16] | GI50 [17] | GI50 [18] | GI50 [19] | GI50 [20]
O=C(O)c1ccccc1NCn1c(=S)sc2ccccc21 | 47.3 µM (inactive) | 35.6 µM (inactive) | 94.6 µM (inactive) | 30.6 µM (inactive) | 59.8 µM (inactive) | 45.5 µM (inactive) | 25.7 µM (inactive) | 45.1 µM (inactive) | 44.3 µM (inactive) | 83 µM (inactive) | 68.7 µM (inactive) | 40.7 µM (inactive) | > 100 µM (inactive) | > 100 µM (inactive) | > 100 µM (inactive) | > 100 µM (inactive) | 66.5 µM | 35.5 µM (inactive) | – | –
Cc1nc(N)nc2ccccc12 | > 100 µM (inactive) | > 100 µM (inactive) | > 100 µM (inactive) | > 100 µM (inactive) | > 100 µM (inactive) | > 100 µM (inactive) | – | > 100 µM (inactive) | > 100 µM (inactive) | > 100 µM (inactive) | > 100 µM (inactive) | > 100 µM (inactive) | > 100 µM (inactive) | > 100 µM (inactive) | 60 µM (inactive) | > 100 µM (inactive) | > 100 µM | > 100 µM (inactive) | 0.172 µM (active) | –
CNC(=O)CNC(=O)N(C[C@@H]1CCCN1C(=O)[C@H](CC(C)C)NC(=O)OC(C)(C)C)C(C)C | > 100 µM (inactive) | > 100 µM (inactive) | – | > 100 µM (inactive) | > 100 µM (inactive) | > 100 µM (inactive) | > 100 µM (inactive) | > 100 µM (inactive) | > 100 µM (inactive) | > 100 µM (inactive) | > 100 µM (inactive) | > 100 µM (inactive) | > 100 µM (inactive) | – | > 100 µM (inactive) | > 100 µM (inactive) | > 100 µM | > 100 µM (inactive) | > 100 µM (inactive) | > 100 µM (inactive)
N=C(N)SCc1nc(-c2ccc(Cl)cc2)no1 | 21.7 µM (inactive) | 13.3 µM (inactive) | 20.6 µM (inactive) | 11.9 µM (inactive) | 10.2 µM (inactive) | 19.3 µM (inactive) | 14.6 µM (inactive) | 27.3 µM (inactive) | 9.79 µM (inactive) | 12.2 µM (inactive) | 38.4 µM (inactive) | 14.6 µM (inactive) | 42 µM (inactive) | 29.1 µM (inactive) | 23.1 µM (inactive) | 16.8 µM (inactive) | 11.2 µM | 16.9 µM (inactive) | > 100 µM (inactive) | –
CC1(c2ccc(Cl)cc2)C=C(c2ccc(Cl)cc2)C(C#N)=C(C(C#N)C#N)N1.CNC (stereo unspecified) | 16.1 µM (inactive) | 16.6 µM (inactive) | 18.7 µM (inactive) | 8.75 µM (inactive) | 16.6 µM (inactive) | 10.7 µM (inactive) | 14.5 µM (inactive) | 16.5 µM (inactive) | 14.1 µM (inactive) | 17.5 µM (inactive) | 19.2 µM (inactive) | 14 µM (inactive) | 9.82 µM (inactive) | – | 18.8 µM (inactive) | 18.6 µM (inactive) | 15.1 µM | 14.1 µM (inactive) | 19.8 µM (inactive) | 16.3 µM (inactive)
CCOC(=O)Cc1c(C)c2ccc(OC(C)=O)c(OC(C)=O)c2oc1=O | 23.1 µM (inactive) | 33.8 µM (inactive) | 20.9 µM (inactive) | 20.1 µM (inactive) | 29.6 µM (inactive) | 19.6 µM (inactive) | 40 µM (inactive) | 40.6 µM (inactive) | 32.7 µM (inactive) | 28.1 µM (inactive) | 21.9 µM (inactive) | 34 µM (inactive) | 32.4 µM (inactive) | 17.5 µM (inactive) | 19.4 µM (inactive) | 17.9 µM (inactive) | 18.7 µM | 12.3 µM (inactive) | 32.7 µM (inactive) | –
N#CC1C(=O)NC2=C(CCOc3c2ccc2ccccc32)C1c1ccc(F)cc1 (stereo unspecified) | 12.3 µM (inactive) | 13.3 µM (inactive) | 23.4 µM (inactive) | 21.1 µM (inactive) | – | 22.4 µM (inactive) | 61 µM (inactive) | 18.5 µM (inactive) | – | 40.9 µM (inactive) | 25.2 µM (inactive) | 14 µM (inactive) | 16.2 µM (inactive) | 7.46 µM (inactive) | 20.2 µM (inactive) | 26.1 µM (inactive) | 38.5 µM | 27.8 µM (inactive) | – | 23.9 µM (inactive)
CCC1OC(=O)CC(O)C(C)C(OC2OC(C)C(O)C(N(C)C)C2O)C(CC=O)CC(C)C(=O)/C=C/C2(C)OC2C1C (stereo unspecified) | 30.2 µM (inactive) | 25.8 µM (inactive) | 34.2 µM (inactive) | 23.3 µM (inactive) | 20.2 µM (inactive) | 24.9 µM (inactive) | 19.6 µM (inactive) | 33.4 µM (inactive) | 19.8 µM (inactive) | 27.7 µM (inactive) | 33.8 µM (inactive) | 17.9 µM (inactive) | 27.1 µM (inactive) | – | 23.5 µM (inactive) | 18.6 µM (inactive) | 32.1 µM | 11.6 µM (inactive) | > 100 µM (inactive) | 15.9 µM (inactive)
Cc1cccc2nc3c(=O)[nH]c(=O)nc-3n(C)c12 | 86.5 µM (inactive) | > 100 µM (inactive) | > 100 µM (inactive) | 28 µM (inactive) | 33.2 µM (inactive) | 50.4 µM (inactive) | 30.2 µM (inactive) | 79.6 µM (inactive) | 31.9 µM (inactive) | 17.6 µM (inactive) | 84.7 µM (inactive) | 30.4 µM (inactive) | 86.9 µM (inactive) | – | > 100 µM (inactive) | 37.8 µM (inactive) | 52.8 µM | 21.3 µM (inactive) | > 100 µM (inactive) | 86.1 µM (inactive)
C[C@H]1[C@H]2[C@H]3CC[C@@H]4[C@@]5(C)CC[C@H](O)C(C)(C)[C@@H]5CC[C@@]4(C)[C@]3(C)C[C@H](O)[C@@]2(C)C[C@H]2O[C@]21C | 17.2 µM (inactive) | 15.2 µM (inactive) | 22.3 µM (inactive) | 16.4 µM (inactive) | 14.3 µM (inactive) | 18 µM (inactive) | 24 µM (inactive) | 20.7 µM (inactive) | 23.2 µM (inactive) | 18.9 µM (inactive) | 16.7 µM (inactive) | 16.1 µM (inactive) | 25.2 µM (inactive) | 17.7 µM (inactive) | – | 25.5 µM (inactive) | 20.1 µM | 20 µM (inactive) | – | 17.5 µM (inactive)
CNC(=S)NNc1ncnc2c1ncn2-c1ccc(C)cc1 | > 100 µM (inactive) | – | > 100 µM (inactive) | > 100 µM (inactive) | > 100 µM (inactive) | > 100 µM (inactive) | > 100 µM (inactive) | > 100 µM (inactive) | > 100 µM (inactive) | > 100 µM (inactive) | > 100 µM (inactive) | > 100 µM (inactive) | > 100 µM (inactive) | > 100 µM (inactive) | – | > 100 µM (inactive) | > 100 µM | > 100 µM (inactive) | > 100 µM (inactive) | –
CC1(C)CCC2=C(O1)/C(=N\Nc1ccccc1)c1ccccc1C2=O | 24.8 µM (inactive) | 17.7 µM (inactive) | 17.8 µM (inactive) | 24 µM (inactive) | 15.9 µM (inactive) | 48.3 µM (inactive) | 31.8 µM (inactive) | 35.4 µM (inactive) | 34.6 µM (inactive) | 30.8 µM (inactive) | 27.2 µM (inactive) | 16.9 µM (inactive) | 35.6 µM (inactive) | 24 µM (inactive) | – | 31.5 µM (inactive) | 29.6 µM | 43.9 µM (inactive) | 39.9 µM (inactive) | –
O=[N+]([O-])/C(C(Cl)=C(Cl)Cl)=C(\NCc1ccccc1)Sc1ccccc1 | 32.3 µM (inactive) | 35.7 µM (inactive) | – | 17.6 µM (inactive) | 38.9 µM (inactive) | 24.3 µM (inactive) | 18.7 µM (inactive) | 24 µM (inactive) | 30.4 µM (inactive) | 19.4 µM (inactive) | 30.2 µM (inactive) | 32.4 µM (inactive) | 15.1 µM (inactive) | – | 28.2 µM (inactive) | 32.8 µM (inactive) | 17.3 µM | 16.8 µM (inactive) | 27.8 µM (inactive) | 34.9 µM (inactive)
COC(=O)C(=CNC(N)=O)C(=O)OC | – | > 100 µM (inactive) | > 100 µM (inactive) | > 100 µM (inactive) | > 100 µM (inactive) | > 100 µM (inactive) | > 100 µM (inactive) | > 100 µM (inactive) | > 100 µM (inactive) | > 100 µM (inactive) | > 100 µM (inactive) | > 100 µM (inactive) | 63.4 µM (inactive) | > 100 µM (inactive) | – | > 100 µM (inactive) | > 100 µM | – | – | –
COc1nc(C(=O)NNC(=O)c2nc(OC)c3ccccc3c2-c2ccccc2)c(-c2ccccc2)c2ccccc12 | > 100 µM (inactive) | > 100 µM (inactive) | > 100 µM (inactive) | > 100 µM (inactive) | > 100 µM (inactive) | > 100 µM (inactive) | > 100 µM (inactive) | > 100 µM (inactive) | > 100 µM (inactive) | > 100 µM (inactive) | > 100 µM (inactive) | > 100 µM (inactive) | > 100 µM (inactive) | – | 96.6 µM (inactive) | > 100 µM (inactive) | > 100 µM | > 100 µM (inactive) | > 100 µM (inactive) | > 100 µM (inactive)
